# Measured values: ChEMBL document CHEMBL6103539, “A critical analysis of design, binding pattern and SAR of benzo-fused heteronuclear compounds as VEGFR-2 inhibitors” (Bioorg Med Chem, 2024)
# How the values were obtained:
# [1] = tested on: HCT-116; test: Antiproliferative activity against human HCT-116 cells assessed as reduction in cell viability incubated for 48 hrs by MTT assay; type: functional, cell-based; conditions: HCT-116, 48 h
# [2] = tested on: A549; test: Antiproliferative activity against human A549 cells assessed as reduction in cell viability incubated for 48 hrs by MTT assay; type: functional, cell-based; conditions: A549, 48 h
# [3] = tested on: HepG2; test: Anticancer activity against human HepG2 cells assessed as reduction in cell viability measured after 72 hrs by MTT assay; type: functional, cell-based; conditions: HepG2, 72 h
# [4] = tested on: MCF7; test: Cytotoxicity against human MCF7 cells assessed as reduction in cell viability incubated for 48 hrs by MTT assay; type: functional, cell-based; conditions: MCF7, 48 h
# [5] = tested on: UO-31; test: Antiproliferative activity against human UO-31 cells assessed as reduction in cell viability incubated for 48 hrs by MTT assay; type: functional, cell-based; conditions: UO-31, 48 h
# [6] = tested on: SK-MEL-2; test: Inhibition of cell proliferation in human SK-MEL-2 cells at 0.3 uM relative to control; type: functional
# [7] = tested on: NCI-H522; test: Inhibition of cell proliferation in human NCI-H522 cells at 0.3 uM relative to control; type: functional
# [8] = tested on: HepG2; test: cells; conditions: Homo sapiens, HepG2, 72 h
# Description: Cytotoxicity against human HepG2 cells assessed as reduction in cell viability incubated for 72 hrs by MTT assay
# [9] = tested on: HCT-116; test: cells; conditions: Homo sapiens, HCT-116, 72 h
# Description: Cytotoxicity against human HCT-116 cells assessed as reduction in cell viability incubated for 72 hrs by MTT assay
# [10] = tested on: MCF7; test: cells; conditions: Homo sapiens, MCF7, 72 h
# Description: Cytotoxicity against human MCF7 cells assessed as reduction in cell viability incubated for 72 hrs by MTT assay
# [11] = target: T1, Vascular endothelial growth factor receptor 2 (Homo sapiens, UniProt P35968); test: Inhibition of VEGFR-2 (unknown origin) at 1 uM by ELISA method relative to control
# [12] = tested on: HeLa; test: Cytotoxicity against human HeLa cells assessed as reduction in cell viability incubated for 72 hrs by CCK-8 assay; type: functional, cell-based
# [13] = tested on: HT-29; test: Cytotoxicity against human HT-29 cells assessed as reduction in cell viability incubated for 72 hrs by CCK-8 assay; type: functional, cell-based; conditions: HT-29, 72 h
# [14] = Cytotoxicity against human HUVEC cells assessed as reduction in cell viability incubated for 72 hrs by CCK-8 assay; type: toxicity, cell-based
# [15] = Cytotoxicity against human A549 cells assessed as reduction in cell viability incubated for 72 hrs by CCK-8 assay; type: toxicity, cell-based
# [16] = Cytotoxicity against human MDA-MB-435 cells assessed as reduction in cell viability incubated for 72 hrs by CCK-8 assay; type: toxicity, cell-based
# [17] = target: T1, Vascular endothelial growth factor receptor 2; test: Inhibition of VEGFR-2 (unknown origin) at 1 uM using Poly(4:1 Glu, Tyr) as substrate by Kinase-Glo Max reagent based luminescence analysis relative to control
# [18] = Antiproliferative activity against human HUVEC cells assessed as reduction in cell growth incubated for 48 hrs by MTT assay; type: toxicity, cell-based
# [19] = tested on: NCI-H1975; test: Antiproliferative activity against human NCI-H1975 cells assessed as reduction in cell growth incubated for 48 hrs by MTT assay; type: toxicity, cell-based; conditions: NCI-H1975, 48 h
# [20] = tested on: A549; test: Antiproliferative activity against human A549 cells assessed as reduction in cell growth incubated for 48 hrs by MTT assay; type: toxicity, cell-based; conditions: A549, 48 h
# [21] = tested on: HeLa; test: Antiproliferative activity against human HeLa cells assessed as reduction in cell growth incubated for 48 hrs by MTT assay; type: toxicity, cell-based
# [22] = tested on: MCF7; test: Cytotoxicity against human MCF7 cells; type: functional, cell-based
# [23] = tested on: A549; test: Cytotoxicity against human A549 cells; type: functional, cell-based
# [24] = tested on: DU-145; test: Cytotoxicity against human DU-145 cells; type: functional, cell-based
# [25] = target: T1, Vascular endothelial growth factor receptor 2; test: Inhibition of human VEGFR-2 by ELISA method
# [26] = target: T1, Vascular endothelial growth factor receptor 2; test: Inhibition of VEGFR-2 in human MCF7 cells by ELISA method; type: cell-based
# [27] = tested on: MCF7; test: Antiproliferative activity against human MCF7 cells assessed as cell growth inhibition measured for 24 hrs by MTT assay; type: functional, cell-based; conditions: MCF7, 24 h
# [28] = tested on: HepG2; test: Antiproliferative activity against human HepG2 cells assessed as cell growth inhibition measured for 24 hrs by MTT assay; type: functional, cell-based; conditions: HepG2, 24 h
# [29] = tested on: HepG2; test: Cytotoxicity against human HepG2 cells assessed as reduction in cell growth by MTT assay; type: functional, cell-based
# [30] = tested on: HCT-116; test: Cytotoxicity against human HCT-116 cells assessed as reduction in cell growth by MTT assay; type: functional, cell-based
# [31] = tested on: MCF7; test: Cytotoxicity against human MCF7 cells assessed as reduction in cell growth by MTT assay; type: functional, cell-based
# [32] = target: T1, Vascular endothelial growth factor receptor 2; test: Inhibition of VEGFR-2 (unknown origin)
# [33] = tested on: MCF7; test: Cytotoxicity against human MCF7 cells assessed as reduction in cell viability incubated for 48 hrs by SRB assay; type: functional, cell-based; conditions: MCF7, 48 h
# [34] = target: T1, Vascular endothelial growth factor receptor 2; test: Inhibition of VEGFR2 in human MCF7 cells by horseradish peroxidase-coupled TMB substrate based ELISA; type: cell-based
# [35] = tested on: A549; test: Cytotoxicity against human A549 cells assessed as reduction in cell growth incubated for 24 hrs by MTT assay; type: functional, cell-based; conditions: A549, 24 h
# [36] = tested on: NCI-H460; test: Cytotoxicity against human NCI-H460 cells assessed as reduction in cell growth incubated for 24 hrs by MTT assay; type: functional, cell-based; conditions: NCI-H460, 24 h
# [37] = target: T1, Vascular endothelial growth factor receptor 2; test: Inhibition of GST-tagged human recombinant VEGFR2 at 10 uM using Poly(4:1 Glu, Tyr) as substrate by Kinase-Glo Max reagent based luminescence analysis relative to control
# [38] = target: T1, Vascular endothelial growth factor receptor 2; test: Inhibition of VEGFR2 (unknown origin) using poly (Glu,Tyr) 4:1 as substrate measured after 1 hr in presence of ATP by ELISA method
# T1 sequence (P35968 whole entry): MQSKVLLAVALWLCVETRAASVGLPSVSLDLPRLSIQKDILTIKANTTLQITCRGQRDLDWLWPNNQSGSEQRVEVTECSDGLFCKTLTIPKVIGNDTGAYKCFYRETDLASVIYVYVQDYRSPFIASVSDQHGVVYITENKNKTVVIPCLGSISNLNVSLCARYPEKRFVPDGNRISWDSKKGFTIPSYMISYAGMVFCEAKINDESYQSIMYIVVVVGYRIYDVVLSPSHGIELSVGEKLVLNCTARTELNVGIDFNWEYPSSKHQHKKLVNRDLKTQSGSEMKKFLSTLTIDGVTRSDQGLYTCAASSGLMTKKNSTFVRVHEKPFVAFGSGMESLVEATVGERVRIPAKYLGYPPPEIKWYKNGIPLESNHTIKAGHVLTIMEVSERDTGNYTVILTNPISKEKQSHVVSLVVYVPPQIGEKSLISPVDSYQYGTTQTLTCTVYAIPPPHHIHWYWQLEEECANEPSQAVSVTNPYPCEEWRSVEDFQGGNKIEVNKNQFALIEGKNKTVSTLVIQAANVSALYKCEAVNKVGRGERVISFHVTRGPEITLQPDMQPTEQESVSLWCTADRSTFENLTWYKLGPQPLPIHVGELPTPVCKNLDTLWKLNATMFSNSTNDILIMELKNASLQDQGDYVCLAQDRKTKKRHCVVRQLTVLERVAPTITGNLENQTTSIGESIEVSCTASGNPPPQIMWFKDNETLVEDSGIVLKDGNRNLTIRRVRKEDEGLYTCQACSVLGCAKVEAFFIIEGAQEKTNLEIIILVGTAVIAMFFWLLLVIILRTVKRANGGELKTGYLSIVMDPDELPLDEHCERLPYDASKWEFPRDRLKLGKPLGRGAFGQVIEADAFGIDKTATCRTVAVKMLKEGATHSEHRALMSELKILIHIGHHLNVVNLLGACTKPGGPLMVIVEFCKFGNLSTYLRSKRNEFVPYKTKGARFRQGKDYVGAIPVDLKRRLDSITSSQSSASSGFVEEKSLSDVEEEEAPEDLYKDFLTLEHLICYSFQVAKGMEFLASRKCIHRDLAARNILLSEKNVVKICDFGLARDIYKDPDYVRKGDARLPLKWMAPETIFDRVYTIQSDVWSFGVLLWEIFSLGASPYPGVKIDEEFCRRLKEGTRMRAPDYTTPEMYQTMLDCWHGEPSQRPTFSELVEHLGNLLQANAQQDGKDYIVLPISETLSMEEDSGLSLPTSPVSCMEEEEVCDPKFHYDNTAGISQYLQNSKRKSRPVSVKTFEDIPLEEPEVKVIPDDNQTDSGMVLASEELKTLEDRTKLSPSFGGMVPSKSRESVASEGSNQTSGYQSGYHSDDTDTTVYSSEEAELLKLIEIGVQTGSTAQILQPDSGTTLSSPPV
smiles,measurement,setting,value
O=C(CCc1nnc2sc(CCc3ccccc3)nn12)c1nc2cc([N+](=O)[O-])ccc2[nH]1,IC50,[1],2190 nM
same,IC50,[2],11 µM
COc1ccc(-c2nn(-c3ccccc3)cc2/C=C2/S/C(=N\N=C(/C)c3nc4ccccc4[nH]3)N(c3ccc(Cl)cc3)C2=O)cc1,IC50,[3],11 µg/mL
same,IC50,[4],5.84 µM
COc1cc(C2OC(CCC(=O)c3nc4cc([N+](=O)[O-])ccc4[nH]3)=NN2C(C)=O)cc(OC)c1OC (configuration not stated),IC50,[5],19.1 µM
same,inhibition at 0.3 µM,[6],42.6%
same,inhibition at 0.3 µM,[7],48.7%
Cc1ccc2oc(SCCC(=O)Nc3ccc(S(=O)(=O)NC(=O)NC4CCCCC4)cc3)nc2c1,IC50,[8],4.13 µM
same,IC50,[9],6.93 µM
same,IC50,[10],8.67 µM
Cn1c(COC(=O)c2c[nH]c3ccccc23)nc2ccccc21,inhibition,[11],33.9%
same,IC50,[12],270 nM
same,IC50,[13],360 nM
same,IC50 at 72 h,[14],260 nM
same,IC50 at 72 h,[15],210 nM
same,IC50 at 72 h,[16],540 nM
O=C(Nc1ccc(OC(F)(F)F)cc1)Nc1ccc2oc(-c3ccccc3Cl)nc2c1,inhibition,[17],98.6%
same,IC50 at 48 h,[18],8.46 µM
same,IC50,[19],1400 nM
same,IC50,[20],7.61 µM
same,IC50,[21],280 nM
COc1cc(/C=C2/C=C(c3nc4ccccc4[nH]3)NC2=O)cc(OC)c1OC,IC50,[22],7.2 µM
same,IC50,[23],8.3 µM
same,IC50,[24],7.7 µM
Cn1c(COC(=O)c2c[nH]c3ccc(Br)cc23)nc2ccccc21,inhibition,[11],28.8%
same,IC50,[12],330 nM
same,IC50,[13],330 nM
same,IC50 at 72 h,[14],320 nM
same,IC50 at 72 h,[15],450 nM
same,IC50 at 72 h,[16],270 nM
O=[N+]([O-])c1ccc(CNc2cccc(-c3nc4ccccc4[nH]3)c2)cc1,IC50,[4],3.37 µM
same,IC50,[25],6.7 nM
same,IC50,[26],6.7 nM
COc1ccccc1NC(=O)c1ccc(NC(=O)CSc2nc3ccccc3o2)cc1,IC50,[27],4 µM
same,IC50,[28],3.95 µM
COc1cc(/C=C2/C=C(c3nc4ccccc4[nH]3)NC2=O)ccc1O,IC50,[22],7.3 µM
same,IC50,[23],9.6 µM
same,IC50,[24],8.7 µM
Cc1ccc2oc(SCCC(=O)Nc3ccc(S(=O)(=O)NC(=O)Nc4ccccc4)cc3)nc2c1,IC50,[8],6.58 µM
same,IC50,[9],9.1 µM
same,IC50,[10],10.1 µM
COc1cc(/C=N/NC(=O)c2nnn(Cc3nc4ccccc4[nH]3)c2C)ccc1O,IC50,[29],10.9 µM
same,IC50,[30],3.34 µM
same,IC50,[31],7.11 µM
same,IC50,[32],229 nM
COc1cc(/C=N/NC(=O)COc2ccc(-c3nc4ccccc4s3)cc2OC)ccc1O,IC50,[33],6.58 µM
same,IC50,[34],170 nM
COc1cc(-c2nc3ccccc3s2)ccc1OCC(=O)N/N=C/c1ccc([N+](=O)[O-])cc1,IC50,[33],28.4 µM
same,IC50,[34],180 nM
O=C(CCSc1nc2ccccc2o1)Nc1nnc(-c2ccccc2)s1,IC50,[8],9.97 µM
same,IC50,[9],6.99 µM
same,IC50,[10],7.89 µM
CCNC(=S)NS(=O)(=O)c1ccc(NC(=O)CCSc2nc3ccccc3o2)cc1,IC50,[8],8.1 µM
same,IC50,[9],7.91 µM
same,IC50,[10],12.3 µM
COc1ccc(/C=N/N=C(/c2ccccc2)c2ccc3nc(-c4ccc(Cl)cc4)[nH]c3c2)cc1,IC50,[35],3.58 µM
same,IC50,[36],1710 nM
same,inhibition,[37],86.2%
O=[N+]([O-])c1ccc(NC(=S)Nc2cccc(-c3nc4ccccc4[nH]3)c2)cc1,IC50,[4],5.84 µM
same,IC50,[25],6.7 nM
same,IC50,[26],8.9 nM
O=C(CCSc1nc2ccccc2o1)Nc1ccc(S(=O)(=O)NC(=O)NC2CCCCC2)cc1,IC50,[38],80 nM
same,IC50,[8],5.93 µM
same,IC50,[9],7.14 µM
same,IC50,[10],8.93 µM
COc1cc(-c2nc3ccccc3s2)ccc1OCC(=O)N/N=C/c1ccc(O)cc1,IC50,[33],7.83 µM
same,IC50,[34],190 nM
